Measurements reported in patent publication EP4721737A1, “USE OF PHARMACEUTICAL COMPOSITION COMPRISING COMPOUND HAVING BIS(AZANYLYLIDENE) SULFONYL STRUCTURE FOR TREATING ANEMIA-RELATED DISEASES” (Scinnohub Pharmaceutical Co., Ltd., priority 2023, dated 2024).

Columns and labels:
recombinant human PKR = recombinant human PKR (Homo sapiens, UniProt P30613); test: pyruvate kinase (PKR) activity test, activation of recombinant enzyme (fluorescence kit); format: biochemical
Method: To test the activation effect of the compound of the present disclosure on recombinant human PKR.
3.1 A recombinant human PKR enzyme solution was prepared at a concentration of 60 ng/well (a 20 µL reaction system), and 5 µL of the solution was added into each well of a black transparent bottom 384-well plate.
3.2 Compound solutions were prepared at different concentrations, with the final concentrations of 1000/300/100 nM (containing 1% DMSO). Each 5 µL of the compound solution was added into the plate in step 3.1 and mixed well. The plate was incubated at room temperature for 10 min.
3.3 A reaction system was prepared according to the instructions of a kit (as shown in the table below), and 10 µL of the reaction system was added into each well of the 384-well plate, and mixed uniformly with the solution in step 3.2.
3.4 The 384-well plate was placed on a microplate reader to detect the fluorescence value at 540/590 nm, where the value was read every 2 minutes and the detection was conducted continuously for 1 hour.
3.5 The Slope value within the detection time was calculated, and the 1% DMSO well was used as a control well to calculate a compound activation rate. Activation rate % = (Slopeofcompoundwell/Slopeofcontrolwell) × 100% [formula]
With the log value of the compound concentration as the X axis and the percentage activation rate as the Y axis, a dose-effect curve was fitted with the log(agonist) vs. response-variable slope of the analysis software GraphPad Prism 5, and the AC50 value of the activity of each compound against PKR was obtained. Y = min + (max−min)/(1+10^(∧)((LogAC50−X)×Hillslope)). [formula]

[1] = biological target: T1, PKR in ex vivo red blood cells from healthy individuals (Homo sapiens, UniProt P30613); test: ex vivo pyruvate kinase (PKR) activity experiment, red blood cells of healthy individuals; format: cell-based; settings: 3 hours co-cultivation
T1 construct: endogenous in cells; host or cells: human red blood cells isolated from fresh peripheral blood of healthy individuals
Method: To test the effects of the compound of the present disclosure on PKR activation in ex vivo red blood cells from healthy individuals and patients with thalassemia.
• i. 5 g of glucose, 85 mg of adenine, and 2.625 g of mannitol were weighed and added into a 50 mL centrifuge tube. 40 mL of PBS was added to dissolve (sonicate for 30 minutes until completely dissolved). The solution was filtered through a 0.22 µm filter, then added to 460 mL of sterile PBS and mixed thoroughly.
• i. Fresh human peripheral blood was collected. K2EDTA was used as the anticoagulant. 1 part anticoagulant with 9 parts blood was mixed, then centrifuged at 500 g for 10 minutes at room temperature to remove the plasma. • ii. Packed red blood cells: 1.5 volumes of PBS were added, then centrifuged at 2000 ×g for 5 minutes at room temperature. After centrifugation, the supernatant was removed. This step was repeated twice. • iii. Diluted red blood cells: 1.5 volumes of PBS were added, then resuspended and mixed thoroughly. • iv. The diluted red blood cells were slowly added to 0.5 volume of 70% isotonic solution (e.g., 7.5 mL of diluted red blood cells + 3 mL of 70% isotonic solution Percoll) and centrifuged at 4000 ×g for 20 minutes at 4°C. • v. The supernatant was removed. The red blood cells at the bottom were washed once with 4-5 mL of PBS to elute the Percoll gel, and then centrifuged at 2000 ×g for 5 minutes at room temperature. • vi. The supernatant was removed. The red blood cells were counted and then diluted in AGAM medium containing 10% FBS to a density of 2 × 10^8 cells/mL for storage at 4°C.
i. The red blood cells were seeded into a 96-well plate at a uniform density of 1 × 10^7 cells/mL, with 100 µL per well. The test compounds (dissolved in DMSO) were diluted and added to the cell culture medium, resulting in final compound concentrations of 3000, 1000, 300, 100, 10, 3, and 1 nM (with 1% DMSO). The cells and compounds were co-cultivated for 3 hours in a 37°C incubator with 5% CO2. Subsequently, the plate was centrifuged at 2000 g for 20 minutes, and the supernatant was discarded. 100 µL of red blood cell lysis buffer was added to the cell pellet, vortexed for 20 minutes, and centrifuged at 4000 g for 5 minutes. The supernatant was collected for analysis. ii. The reaction system was prepared according to the kit instructions (shown as the table below), 10 µL of the reaction system was added to each well of a 384-well plate, and 10 µL of red blood cell lysis buffer was took and mixed well (20 µL reaction system).
iii. A black, transparent-bottomed 384-well plate was placed in a microplate reader to measure fluorescence at 540/590 nm. The fluorescence was read every 2 minutes for 1 hour.
i. The Slope value was calculated over the assay time. Compound activation percentage was calculated using the 1% DMSO well as the control well. Activation percentage = (Slope of compound well / Slope of control well) × 100% ii. Dose-response curve was fit using the logarithmic compound concentration on the X-axis and the percent activation percentage on the Y-axis, the log(agonist) vs. response - variable slope function in GraphPad Prism 5 was used to determine the AC50 value for each compound on PKR activity. Y = min + (max−min)/(1+10^(∧)((LogAC50−X)×Hillslope)). [formula] The PKR agonist effects of the compound of the present disclosure on ex vivo red blood cells from healthy individuals and thalassemia patients were determined using the above assay. The AC50 values measured on ex vivo red blood cells from healthy individuals are as follows (A represents 0-100 nM, B represents 101-300 nM, and C represents 300-1000 nM): […]

Chain of recombinant human PKR (P30613 whole entry): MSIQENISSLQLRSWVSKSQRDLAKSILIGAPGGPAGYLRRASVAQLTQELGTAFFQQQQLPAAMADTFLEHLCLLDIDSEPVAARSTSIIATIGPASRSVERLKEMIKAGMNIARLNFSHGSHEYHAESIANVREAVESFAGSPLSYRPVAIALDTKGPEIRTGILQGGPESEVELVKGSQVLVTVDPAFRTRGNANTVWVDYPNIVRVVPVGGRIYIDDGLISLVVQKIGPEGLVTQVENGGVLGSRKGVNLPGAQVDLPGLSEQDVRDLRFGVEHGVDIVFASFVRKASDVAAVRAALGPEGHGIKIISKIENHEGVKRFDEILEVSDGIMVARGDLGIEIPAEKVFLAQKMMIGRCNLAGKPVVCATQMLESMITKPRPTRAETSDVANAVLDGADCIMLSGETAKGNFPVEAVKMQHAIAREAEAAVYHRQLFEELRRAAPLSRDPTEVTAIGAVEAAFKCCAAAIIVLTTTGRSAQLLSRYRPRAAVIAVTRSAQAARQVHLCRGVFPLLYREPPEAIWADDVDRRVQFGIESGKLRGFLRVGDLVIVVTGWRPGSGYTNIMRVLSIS
T1 sequence (P30613 whole entry): as above

AC50 (recombinant human PKR) [nM]	AC50 [1] [nM]	Compound
< 100	101 to 300	O=C(C(CO)c1ccccc1)N1CC(=C2CN(S(=O)(=O)c3ccc(OC(F)F)cc3)C2)C1 (stereo not drawn) [Compound 6, 1-(1'-((4-(difluoromethoxy)phenyl)sulfonyl)-1',4'-dihydro-2H,2'H-[3,3'-diazetidinylidene]-1(4H)-yl)-3-hydroxy-2-phenylpropan-1-one]
< 100	< 100	COc1ccc(S(=O)(=O)N2CC(=C3CN(C(=O)[C@H](CO)c4ccccc4)C3)C2)nc1 [Compound 67, (S)-3-hydroxy-1-(1'-((5-methoxypyridin-2-yl)sulfonyl)-1',4'-dihydro-2H,2'H-[3,3'-diazetidinylidene]-1(4H)-yl)-2-phenylpropan-1-one]
300 to 1000	300 to 1000	O=C(c1c[nH]c2ccccc12)N1CC(=C2CN(S(=O)(=O)c3ccc4ncsc4c3)C2)C1 [Compound 52, (1'-(benzo[d]thiazol-6-ylsulfonyl)-1',4'-dihydro-2H,2'H-[3,3'-diazetidinylidene]-1(4H)-yl)(1H-indol-3-yl)methanone]
300 to 1000	300 to 1000	O=C(C1NCc2ccccc21)N1CC(=C2CN(S(=O)(=O)c3ccc4ncsc4c3)C2)C1 (stereo not drawn) [Compound 64, (1'-(benzothiazol-6-ylsulfonyl)-1',4'-dihydro-2H,2'H-[3,3'-diazetidinylidene]-1(4H)-yl)(isoindolin-1-yl)methanone]
300 to 1000	300 to 1000	CC(C)(O)C(C(=O)N1CC(=C2CN(S(=O)(=O)c3ccccn3)C2)C1)c1ccccc1 (stereo not drawn) [Compound 62, 3-hydroxy-3-methyl-2-phenyl-1-(1'-(pyridin-2-ylsulfonyl)-1',4'-dihydro-2H,2'H-[3,3'-diazetidinylidene]-1(4H)-yl)butan-1-one]
< 100	< 100	O=C(C(CO)c1ccc(F)cc1)N1CC(=C2CN(S(=O)(=O)c3ccc4ncsc4c3)C2)C1 [Compound 50, (S)-1-(1'-(benzo[d]thiazol-6-ylsulfonyl)-1',4'-dihydro-2H,2'H-[3,3'-diazetidinylidene]-1(4H)-yl)-2-(4-fluorophenyl)-3-hydroxypropan-1-one]
300 to 1000	< 100	O=C(C(O)c1ccccc1)N1CC(=C2CN(S(=O)(=O)c3ccc(OC(F)F)cc3)C2)C1 (stereo not drawn) [Compound 8, 1-(1'-((4-(difluoromethoxy)phenyl)sulfonyl)-1',4'-dihydro-2H,2'H-[3,3'-diazetidinylidene]-1(4H)-yl)-2-hydroxy-2-phenylethan-1-one]
300 to 1000	300 to 1000	O=C(C(CO)c1cccnc1)N1CC(=C2CN(S(=O)(=O)c3ccccn3)C2)C1 (stereo not drawn) [Compound 60, 3-hydroxy-1-(1'-(pyridin-2-ylsulfonyl)-1',4'-dihydro-2H,2'H-[3,3'-diazetidinylidene]-1(4H)-yl)-2-(pyridin-3-yl)propan-1-one]
300 to 1000	300 to 1000	O=C(Cc1ccccc1)N1CC(=C2CN(S(=O)(=O)c3ccc4ncsc4c3)C2)C1 [Compound 47, 1-(1'-(benzo[d]thiazol-6-ylsulfonyl)-1',4'-dihydro-2H,2'H-[3,3'-diazetidinylidene]-1(4H)-yl)-2-phenyl ethan-1-one]
< 100	101 to 300	O=C(C(CO)c1ccc2c(c1)NCCO2)N1CC(=C2CN(S(=O)(=O)c3ccccn3)C2)C1 (stereo not drawn) [Compound 79, 2-(3,4-dihydro-2H-benzo[b][1,4]oxazin-6-yl)-3-hydroxy-1-(1'-(pyridin-2-ylsulfonyl)-1',4'-dihydro-2 H,2'H-[3,3'-diazetidinylidene]-1(4H)-yl)propan-1-one]
< 100	< 100	O=C(C(CO)c1ccc(F)cc1F)N1CC(=C2CN(S(=O)(=O)c3ccccn3)C2)C1 (stereo not drawn) [Compound 74, 2-(2,4-difluorophenyl)-3-hydroxy-1-(1'-(pyridin-2-ylsulfonyl)-1',4'-dihydro-2H,2'H-[3,3'-diazetidinylidene]-1(4H)-yl)propan-1-one]
101 to 300	< 100	O=C(N1CC(=C2CN(S(=O)(=O)c3ccccn3)C2)C1)C1(c2ccccc2)COC1 [Compound 89, (3-phenyloxetan-3-yl)(1'-(pyridin-2-ylsulfonyl)-1',4'-dihydro-2H,2'H-[3,3'-diazetidinylidene]-1(4H)-yl)methanone]
101 to 300	300 to 1000	O=C(C(CO)c1ccc(F)cc1)N1CC(=C2CN(S(=O)(=O)c3cnc4c(c3)OCCO4)C2)C1 (stereo not drawn) [Compound 19, 1-(1'-((2,3-dihydro-[1,4]dioxolane[2,3-b]pyridin-7-yl)sulfonyl)-1',4'-dihydro-2H,2'H-[3,3'-diazetidinylidene]-1(4H)-yl)-2-(4-fluorophenyl)-3-hydroxypropan-1-one]
101 to 300	101 to 300	O=C(N1CC(=C2CN(S(=O)(=O)c3ccc(OC(F)F)cc3)C2)C1)C1(c2ccccc2)CCOCC1 [Compound 14, (1'-((4-(difluoromethoxy)phenyl)sulfonyl)-1',4'-dihydro-2H,2'H-[3,3'-diazetidinylidene]-1(4H)-yl)(4-phenyltetrahydro-2H-pyran-4-yl)methanone]
< 100	< 100	O=C(C(CO)c1ccc(F)cc1)N1CC(=C2CN(S(=O)(=O)c3ccc4c(c3)OCCO4)C2)C1 (stereo not drawn) [Compound 18, 1-(1'-((2,3-dihydrobenzo[b][1,4]dioxin-6-yl)sulfonyl)-1',4'-dihydro-2H,2'H-[3,3'-diazetidinylidene]-1 (4H)-yl)-2-(4-fluorophenyl)-3-hydroxypropan-1-one]
300 to 1000	300 to 1000	O=C(C(CO)c1ccc(C(F)(F)F)cc1)N1CC(=C2CN(S(=O)(=O)c3ccccn3)C2)C1 (stereo not drawn) [Compound 78, 3-hydroxy-1-(1'-(pyridin-2-ylsulfonyl)-1',4'-dihydro-2H,2'H-[3,3'-diazetidinylidene]-1(4H)-yl)-2-(4-(trifluoromethyl)phenyl)propan-1-one]
300 to 1000	300 to 1000	O=C([C@H](CO)c1ccccc1)N1CC(=C2CN(S(=O)(=O)c3ccc(-c4ncco4)c(F)c3)C2)C1 [Compound 27, (S)-1-(1'-((3-fluoro-4-(oxazol-2-yl)phenyl)sulfonyl)-1',4'-dihydro-2H,2'H-[3,3'-diazetidinylidene]-1(4 H)-yl)-3-hydroxy-2-phenylpropan-1-one]
101 to 300	< 100	Cc1ccc(C(CO)C(=O)N2CC(=C3CN(S(=O)(=O)c4ccccn4)C3)C2)cc1 (stereo not drawn) [Compound 57, 3-hydroxy-1-(1'-(pyridin-2-ylsulfonyl)-1',4'-dihydro-2H,2'H-[3,3'-diazetidinylidene]-1(4H)-yl)-2-(p-tolyl)propan-1-one]
